Reference: patent publication US7879872B2, “Compositions comprising multiple bioactive agents, and methods of using the same” (Affinium Pharmaceuticals, Inc., priority 2003, dated 2011)

How the values were obtained:
Assay in all cases: checkerboard combination, clinical bacterial isolates (FIC)
Type in all cases: cell-based
H. influenzae HI_49247 = conditions: compound G with Azithromycin
Method: (§1) The combination experiments were performed and the results were interpreted using the checkerboard method as described in Eliopoulous, G. M., and R. C. Moellering, 1996, Antimicrobial combinations, p. 330-396, In V. Lorian (ed.), Antibiotics in laboratory medicine, 4th ed., The Williams & Wilkins Co., Baltimore, Md., in 96-well microtiter plates. Compound A was serially diluted along the x-axis of the test plate to a final volume of 50 μl, and compound B was serially diluted in a separate transfer plate. Dilutions in both plates were made in CAMHB (cation-adjusted Mueller Hinton broth) for Staphylococci and in CAMHB+5% sheep blood for Streptococci. Aliquots (50 μl) of Compound B were transferred to the test plate along the y-axis thereby achieving a checkerboard matrix of antimicrobial combinations (100 μl total volume) as in FIG. 4. The first column and last row (shaded in FIG. 4) contained only compound B or compound A, respectively. Plates were then inoculated with 10 μl of the test microorganism and MICs were determined according to NCCLS guidelines (see National Committee for Clinical Laboratory Standards, 2000, Methods for Dilution Antimicrobial Susceptibility Tests for Bacteria That Grow Aerobically—Fifth Edition, Approved Standard M7-A5, NCCLS, Wayne, Pa., USA.)
(§2) Data analysis was performed as follows and according to Eliopoulous, G. M., and R. C. Moellering, 1996, Antimicrobial combinations, p. 330-396, In V. Lorian (ed.), Antibiotics in laboratory medicine, 4th ed., The Williams & Wilkins Co., Baltimore, Md. First individual FIC values for each combination in a plate were calculated: FIC(Fractional Inhibitory Concentration)=FICA+FICB • FICA=MICA+B/MICA i.e. the MIC of combination of compound A+compound B divided by the MIC of compound A alone. • FICB=MICB+A/MICB i.e. the MIC of combination of compound B+compound A divided by the MIC of compound B alone.
(§3) FIC values were calculated only for combinations that enabled determination of a true MIC (e.g. not > or <=values). FIC indexes were then calculated as the average of individual FIC values for each combination plate.

S. pneumoniae SP_22425 = S. pneumoniae SP_22425 (PenR EryR ClinR)
Method: as §1, §2, §3

S. pneumoniae SP_22257 = conditions: compound G with Azithromycin; S. pneumoniae SP_22257 (PenR EryS ClinS)
Method: as §1, §2, §3

E. coli EC_25922 = tested on: E. coli EC_25922
Method: as §1, §2, §3

[1] = tested on: S. epidermidis SE_A7100750; conditions: S. epidermidis SE_A7100750 (MRSE CipR)
Method: as §1, §2, §3

S. aureus SA_A6250596 = S. aureus SA_A6250596 (MRSA-MDR)
Method: as §1, §2, §3

S. mitis SMI_116 = tested on: S. mitis SMI_116
Method: as §1, §2, §3

E. faecalis EF_A6221420 = E. faecalis EF_A6221420 (VRE)
Method: as §1, §2, §3

P. aeruginosa PA_27853 = tested on: P. aeruginosa PA_27853
Method: as §1, §2, §3

S. aureus SA_A7080336 = S. aureus SA_A7080336 (MRSA)
Method: as §1, §2, §3

S. pyogenes SPY_20061 = S. pyogenes SPY_20061 (EryS)
Method: as §1, §2, §3

## Cc1c(CN(C)C(=O)/C=C/c2cnc3c(c2)CCC(=O)N3)oc2ccccc12 [Compound G, (E)-N-methyl-N-(3-methylbenzofuran-2-ylmethyl)-3-(7-oxo-5,6,7,8-tetrahydro-1,8-naphthyridin-3-yl)acrylamide]
H. influenzae HI_49247
  FIC: <2
S. pneumoniae SP_22425; compound G with Ceftriaxone
  FIC: <2
S. pneumoniae SP_22425; compound G with Cefuroxime
  FIC: <2
S. pneumoniae SP_22425; compound G with Gatifloxacin
  FIC: <2
S. pneumoniae SP_22425; compound G with Levofloxacin
  FIC: <2
S. pneumoniae SP_22425; compound G with Meropenem
  FIC: <2
S. pneumoniae SP_22257
  FIC: <2
E. coli EC_25922; compound G with Ceftriaxone
  FIC: 0.7
E. coli EC_25922; compound G with Gatifloxacin
  FIC: <2
E. coli EC_25922; compound G with Meropenem
  FIC: 0.6
[1]; compound G with Ceftriaxone
  FIC: 1
[1]; compound G with Gatifloxacin
  FIC: <2
[1]; compound G with Meropenem
  FIC: 0.6
S. aureus SA_A6250596; compound G with Azithromycin
  FIC: <2
S. aureus SA_A6250596; compound G with Ceftriaxone
  FIC: <2
S. aureus SA_A6250596; compound G with Cefuroxime
  FIC: <2
S. aureus SA_A6250596; compound G with Gatifloxacin
  FIC: 1
S. aureus SA_A6250596; compound G with Levofloxacin
  FIC: 1
S. aureus SA_A6250596; compound G with Meropenem
  FIC: <2
S. aureus SA_A6250596; compound G with Penicillin
  FIC: <2
S. mitis SMI_116; compound G with Ceftriaxone
  FIC: <2
S. mitis SMI_116; compound G with Gatifloxacin
  FIC: <2
S. mitis SMI_116; compound G with Meropenem
  FIC: <2
S. mitis SMI_116; compound G with Penicillin
  FIC: <2
E. faecalis EF_A6221420; compound G with Ceftriaxone
  FIC: <2
E. faecalis EF_A6221420; compound G with Gatifloxacin
  FIC: <2
E. faecalis EF_A6221420; compound G with Levofloxacin
  FIC: <2
E. faecalis EF_A6221420; compound G with Meropenem
  FIC: <2
P. aeruginosa PA_27853; compound G with Gatifloxacin
  FIC: <2
P. aeruginosa PA_27853; compound G with Meropenem
  FIC: <2
S. aureus SA_A7080336; compound G with Gatifloxacin
  FIC: 0.6
S. aureus SA_A7080336; compound G with Levofloxacin
  FIC: 0.6
S. pyogenes SPY_20061; compound G with Ceftriaxone
  FIC: <2
S. pyogenes SPY_20061; compound G with Gatifloxacin
  FIC: <2
